# Tests used:
# PCSK9 [1] = molecular target: T1, PCSK9 (Homo sapiens, UniProt Q8NBP7); details: clinical trials, compared to placebo (Elbitar 2016); cited from earlier work
# Target sequence in this assay (Q8NBP7 153-692): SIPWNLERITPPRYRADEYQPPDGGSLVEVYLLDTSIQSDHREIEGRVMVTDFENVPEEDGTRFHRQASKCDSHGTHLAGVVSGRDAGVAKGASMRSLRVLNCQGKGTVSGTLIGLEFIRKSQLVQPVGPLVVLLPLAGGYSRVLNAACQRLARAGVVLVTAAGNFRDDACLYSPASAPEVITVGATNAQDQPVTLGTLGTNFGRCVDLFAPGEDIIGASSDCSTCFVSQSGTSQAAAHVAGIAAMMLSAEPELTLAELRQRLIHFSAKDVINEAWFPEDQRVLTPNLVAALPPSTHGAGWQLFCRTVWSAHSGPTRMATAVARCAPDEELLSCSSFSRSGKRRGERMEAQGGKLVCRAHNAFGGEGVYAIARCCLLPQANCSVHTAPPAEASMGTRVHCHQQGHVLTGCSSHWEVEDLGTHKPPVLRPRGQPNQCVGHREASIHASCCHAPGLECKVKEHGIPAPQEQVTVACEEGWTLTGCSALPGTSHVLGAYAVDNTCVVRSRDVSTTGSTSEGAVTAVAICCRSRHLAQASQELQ
# PCSK9 [2] = molecular target: T2, PCSK9 (Homo sapiens, UniProt Q8NBP7, G670E/V474I); test: cell-based
# Target sequence in this assay (Q8NBP7 31-152): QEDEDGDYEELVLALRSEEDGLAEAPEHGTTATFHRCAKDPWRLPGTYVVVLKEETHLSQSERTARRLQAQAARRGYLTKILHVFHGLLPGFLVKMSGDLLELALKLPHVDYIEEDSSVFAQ
# Target sequence in this assay (Q8NBP7 153-692 V474I/G670E): as the sequence (Q8NBP7 153-692) above, with V322I, G518E counted along it
# Source text: This assay measures for PCSK9 antagonist activity based on a test compound's capacity to restore LDL-C uptake in HepG2 cells. The assay is based on exogenous PCSK9 and LDL-C complexed with a pH-sensitive dye. Outside the cells, at neutral pH, the pHrodo Red-LDL is dimly fluorescent but upon LDLR mediated endocytosis it fluoresces brightly. PCSK9 traffics the LDLR to intracellular degradation and reduces uptake of LDL-C. Inhibition of PCSK9 reduces LDLR degradation and the increased LDL-C uptake is quantified by fluorescence microscopy.
# Cell medium: MEM supplemented with 10% FBS, 1× NEAA and Sodium Pyruvate
# Assay medium: OptiMem supplemented with penicillin/streptomycin
# Cells: HepG2 (ATCC #HB-8065)
# Cryopreserved HepG2 cells were thawed in assay medium and centrifuged for 5 min at 250 g. Supernatant was discarded and the cell pellet resuspended in cell medium and counted with a Nucleocounter. Cells were again centrifuged 5 min at 250 g and the pellet was resuspended to 500000 cells/mL in assay medium. • 2. 20 μL of above cell mix was dispensed into black pclear TC treated 384 well plates with Multidrop Combi and left at room temperature for 20 minutes. • 3. Plates were incubated at 37° C., 5% CO2 for 24 h
# Test compounds were prepared in concentration response in DMSO with a half-log dilution factor in DMSO in Echo 384 LDV plates starting at 10 mM. • 2. 30 nL of above test compounds were dispensed with Echo 655 to cells for a top concentration of 10 μM • 3. […] Plates were incubated at 37° C., 5% CO2 for 24 h
# 10 μL pHrodo Red-LDL in assay medium was dispensed to cells with Multidrop Combi for 6 μg/mL • 2. Plates were incubated at 37° C., 5% CO2 and imaged with the Incucyte S3 after 4 h and 24 h
# Image data was processed using Incucyte 2021, a software to identify cells and red fluorescent intensity. Screener was used to further process data. Data was normalized as % effect of the signal between median values of the on-plate controls of DMSO and 100 nM Evolocumab according to the formula % effect=−100*(x−DMSO)/(Evolocumab−DMSO) where x equals the measured signal. Concentration response data of the normalized values were fitted using a four-parameter logistic fit.
# [3] = molecular target: GSK3b (Glycogen synthase kinase-3 beta) (Homo sapiens, UniProt P49841); test: Assay 6 - GSK3b assay (ThermoFisher, FRET Z-Lyte); format: biochemical; details: geometric mean; ATP Conc: 10.000 μM; read-out: Assay 6 (GSK3B FRET-Z-Lyte CR) GMean IC50 (μM) ATP Conc: 10.000
# Chain of GSK3b (Glycogen synthase kinase-3 beta) (P49841 whole entry): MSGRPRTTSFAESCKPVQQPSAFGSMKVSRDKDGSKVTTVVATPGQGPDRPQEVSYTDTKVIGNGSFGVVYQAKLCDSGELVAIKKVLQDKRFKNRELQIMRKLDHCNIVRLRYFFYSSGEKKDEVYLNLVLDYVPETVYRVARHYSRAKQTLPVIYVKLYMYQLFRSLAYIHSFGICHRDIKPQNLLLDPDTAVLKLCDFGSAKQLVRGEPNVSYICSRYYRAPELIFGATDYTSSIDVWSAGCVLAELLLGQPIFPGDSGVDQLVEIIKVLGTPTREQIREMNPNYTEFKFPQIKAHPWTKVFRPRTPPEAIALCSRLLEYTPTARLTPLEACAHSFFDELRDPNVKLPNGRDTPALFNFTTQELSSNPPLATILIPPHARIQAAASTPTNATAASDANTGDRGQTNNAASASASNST
# Method in brief: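 Z-Lyte FRET kinase assay: 0.22-0.92 ng GSK3β with 2 μM Ser/Thr 09 peptide in 50 mM HEPES pH 7.5, 10 mM MgCl2, 1 mM EGTA, 0.01% BRIJ-35, 60 min at room temperature, then 60 min development. Compounds in 1% DMSO, 10-point 3-fold dilutions from 10 μM; sigmoidal dose-response fit.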
# PCSK9 [4] = molecular target: T1, PCSK9; test: Assay 2 - Biophysical human PCSK9 assay (SPR, Biacore); format: binding; parameters: biotinylated human PCSK9 (31-692)-Avi-His6; details: geometric mean; SPR single-cycle kinetics, 30° C.; read-out: Assay 2 (PCSK9 BIAcore DBA CR) GMean Kd
# Protocol: The SPR binding experiments were performed on a Biacore S200 optical biosensor unit at 30° C. A Series S Sensor Chip SA that is designed to bind biotinylated molecules for interaction analysis in Biacore systems was equilibrated at room temperature prior to use. The running buffer for protein tethering and subsequent ligand binding experiments was 10 mM HEPES pH 7.4, 150 mM NaCl, 0.05% (v/v) Tween 20 pH 7.4.
# For the surface tethering of PCSK9, biotinylated human PCSK9 (31-692)-Avi-His6 at a concentration of 0.5 mg/mL was used. Prior to the surface tethering, the surface was exposed to a solution of 50 mM NaOH, 500 mM NaCl via 3 consecutive injections of this solution with a contact time of 60 s and a flowrate of 10 μL min- to remove non-conjugated streptavidin. The PCSK9 protein was diluted to a concentration of 20 μg/mL using running buffer and injected with a contact time of 180-300 s and a flowrate of 10 μL min^−1 over a single flow channel (typically flow channel 2 or flow channel 4) with the aim to achieve protein capture levels of >5000 response units (RU). Remaining biotin binding sites were blocked via 2 consecutive injections of a 10 μM D-biotin solution in running buffer with a contact time of 60 s and a flowrate of 10 μL min^−1 over all flow-channels.
# The binding experiments were all performed at a flow rate of 30 μL min^−1 and by employing the method of single-cycle kinetics. This approach involves the sequential injection of a compound concentration series without regeneration steps. A contact time between 90-150 s was selected, which was followed by a 40 min dissociation phase to allow for a proper estimation of the dissociation rate constant. Test compounds were delivered in DMSO at a concentration of 10 mM and a digital dispenser HP D300 was used to set up the compound concentration series using 6 concentrations. The tested concentrations have been 30, 100, 300, 1000, 3000 and 10000 nM. Prior to injecting any compound, the surfaces were equilibrated by injecting running buffer over them in three separate pulses. The data collection rate was set to 10 Hz.
# The raw sensorgrams of the compound injections were first subjected to reference subtraction (subtracting the signal from flow channel 1 and/or 3 from the signal from channels 2 and/or 4 respectively) and then blank subtraction (subtracting the signal from injecting DMSO controls from the reference subtracted data). The resulting double-referenced sensorgrams were then fitted using a 1:1 binding interaction model using the manufactures software package to extract kinetic- and affinity data.
# Target sequence in this assay (Q8NBP7 31-692): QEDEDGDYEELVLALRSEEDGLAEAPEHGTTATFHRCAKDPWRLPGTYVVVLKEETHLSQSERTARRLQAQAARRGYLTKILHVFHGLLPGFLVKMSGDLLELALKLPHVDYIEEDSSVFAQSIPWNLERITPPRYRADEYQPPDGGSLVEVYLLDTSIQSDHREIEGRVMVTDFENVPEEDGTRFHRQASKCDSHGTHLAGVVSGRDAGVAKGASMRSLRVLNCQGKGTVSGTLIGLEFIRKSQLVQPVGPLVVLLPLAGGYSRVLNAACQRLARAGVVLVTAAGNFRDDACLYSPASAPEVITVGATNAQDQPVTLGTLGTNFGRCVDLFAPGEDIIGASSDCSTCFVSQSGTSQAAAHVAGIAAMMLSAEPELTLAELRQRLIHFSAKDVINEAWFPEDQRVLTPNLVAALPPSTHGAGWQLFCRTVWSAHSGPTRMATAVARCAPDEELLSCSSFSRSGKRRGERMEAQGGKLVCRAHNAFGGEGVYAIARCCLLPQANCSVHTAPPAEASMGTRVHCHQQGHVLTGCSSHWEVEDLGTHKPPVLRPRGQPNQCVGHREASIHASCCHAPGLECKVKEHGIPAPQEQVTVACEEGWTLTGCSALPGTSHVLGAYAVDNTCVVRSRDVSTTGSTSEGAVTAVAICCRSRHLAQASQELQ
# [5] = molecular target: T3, potassium ion channel hERG (human Ether-á-go-go-Related Gene) (Homo sapiens, UniProt Q12809); test: Assay 5 - hERG assay (SyncroPatch 384PE patch clamp, CHO cells); format: cell-based; details: geometric mean, CHO cells over-expressing hERG, read-out: Assay 5 (hERG Hu CHO IF EPh CR-Syncro) GMean IC50
# T3 construct: expressed in transfected cells; host or cells: Chinese hamster ovary K1 (CHO)
# T3 sequence (Q12809 whole entry): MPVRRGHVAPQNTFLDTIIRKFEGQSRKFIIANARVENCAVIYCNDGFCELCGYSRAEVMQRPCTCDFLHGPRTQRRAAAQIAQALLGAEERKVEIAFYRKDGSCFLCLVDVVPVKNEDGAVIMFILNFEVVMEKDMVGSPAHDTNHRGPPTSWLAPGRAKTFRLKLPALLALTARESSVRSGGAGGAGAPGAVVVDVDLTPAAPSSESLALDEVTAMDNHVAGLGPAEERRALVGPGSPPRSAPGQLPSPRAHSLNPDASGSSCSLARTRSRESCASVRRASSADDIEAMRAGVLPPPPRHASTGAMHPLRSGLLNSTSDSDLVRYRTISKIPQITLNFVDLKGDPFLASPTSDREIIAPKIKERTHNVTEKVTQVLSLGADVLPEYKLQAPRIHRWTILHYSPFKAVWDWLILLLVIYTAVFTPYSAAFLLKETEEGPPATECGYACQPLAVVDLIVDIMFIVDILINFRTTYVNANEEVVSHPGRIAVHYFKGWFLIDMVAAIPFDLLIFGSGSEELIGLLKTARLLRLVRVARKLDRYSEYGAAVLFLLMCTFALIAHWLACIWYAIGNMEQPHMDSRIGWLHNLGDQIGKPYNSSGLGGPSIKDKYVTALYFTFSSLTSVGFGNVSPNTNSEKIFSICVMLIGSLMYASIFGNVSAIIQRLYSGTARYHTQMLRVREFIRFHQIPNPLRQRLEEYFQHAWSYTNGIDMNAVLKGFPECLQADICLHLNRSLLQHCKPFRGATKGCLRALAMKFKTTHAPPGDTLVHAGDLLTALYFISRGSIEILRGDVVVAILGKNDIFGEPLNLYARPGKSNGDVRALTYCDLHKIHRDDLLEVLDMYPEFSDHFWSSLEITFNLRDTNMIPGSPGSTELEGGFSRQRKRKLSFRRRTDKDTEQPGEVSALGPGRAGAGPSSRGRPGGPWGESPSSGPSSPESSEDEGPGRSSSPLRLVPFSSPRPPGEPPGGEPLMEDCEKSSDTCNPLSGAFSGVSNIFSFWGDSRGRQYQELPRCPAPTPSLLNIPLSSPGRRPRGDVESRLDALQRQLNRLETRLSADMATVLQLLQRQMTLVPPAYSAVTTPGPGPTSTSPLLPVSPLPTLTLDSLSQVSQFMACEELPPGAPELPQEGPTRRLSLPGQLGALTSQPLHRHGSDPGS
# Method in brief: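 Automated whole-cell patch clamp at room temperature on CHO-K1 cells over-expressing hERG, using K-fluoride/escin internal solution (pH 7.2) and NMDG-containing external solution (pH 7.4). Compounds were tested in a 6-point cumulative format, 0.33% final DMSO. Wells accepted only with seal >30 MegaOhm, Z′>0.4 and current >0.2 nA.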
# PCSK9 [6] = molecular target: T2, PCSK9; test: biochemical
# Target sequence in this assay (Q8NBP7 with tags, fused parts or gaps V474I/G670E): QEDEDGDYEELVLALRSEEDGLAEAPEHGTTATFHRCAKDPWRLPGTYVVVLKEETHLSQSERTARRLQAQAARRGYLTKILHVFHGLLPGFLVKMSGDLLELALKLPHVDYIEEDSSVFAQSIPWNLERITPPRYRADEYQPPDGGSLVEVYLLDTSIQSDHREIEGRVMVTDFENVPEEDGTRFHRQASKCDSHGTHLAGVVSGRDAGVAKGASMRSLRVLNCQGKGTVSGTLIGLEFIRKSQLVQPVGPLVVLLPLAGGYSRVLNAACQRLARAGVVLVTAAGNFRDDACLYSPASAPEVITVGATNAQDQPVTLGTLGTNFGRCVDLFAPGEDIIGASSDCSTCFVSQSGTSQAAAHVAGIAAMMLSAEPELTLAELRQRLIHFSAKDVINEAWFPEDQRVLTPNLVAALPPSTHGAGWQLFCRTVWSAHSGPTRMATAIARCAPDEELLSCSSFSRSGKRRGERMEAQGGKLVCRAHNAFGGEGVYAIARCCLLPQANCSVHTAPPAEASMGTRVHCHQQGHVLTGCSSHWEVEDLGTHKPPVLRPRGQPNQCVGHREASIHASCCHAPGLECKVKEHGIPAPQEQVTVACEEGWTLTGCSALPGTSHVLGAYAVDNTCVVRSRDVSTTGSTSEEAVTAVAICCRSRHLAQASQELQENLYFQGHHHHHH
Compound,decrease in LDL levels (PCSK9 [1]),IC50 (PCSK9 [2]) [nM],IC50 [3] [µM],Kd (PCSK9 [4]) [nM],IC50 [5] [nM],IC50 (PCSK9 [6]) [nM]
alirocumab,about 50%,,,,,
"Cn1c(=O)n(-c2ccc(N[C@H]3CC[C@H](Nc4nc5cccnc5o4)C3)nc2)c2ncccc21 [Example 18, 1-Methyl-3-(6-(((1S,3S)-3-(oxazolo[5,4-b]pyridin-2-ylamino)cyclopentyl)amino)pyridin-3-yl)-1,3-dihydro-2H-imidazo[4,5-b]pyridin-2-one]",,52,> 10,3,> 40000,2.3
"O=c1ccccn1-c1ccc(N[C@H]2CC[C@H](Nc3nc4c(Br)ccnc4[nH]3)C2)nc1 [Example 73, 6′-(((1S,3S)-3-((7-Bromo-3H-imidazo[4,5-b]pyridin-2-yl)amino)cyclopentyl)amino)-2H-[1,3′-bipyridin]-2-one]",,280,0.192,5,> 40000,4.7
"O=c1c(Cl)cccn1-c1ccc(N[C@H]2CC[C@H](Nc3nc4cccnc4s3)C2)nc1 [Example 24, 3-Chloro-6′-(((1S,3S)-3-(thiazolo[5,4-b]pyridin-2-ylamino)cyclopentyl)amino)-2H-[1,3′-bipyridin]-2-one]",,76,> 10,0.1,13900,0.7
"Cn1ccc(=O)n(-c2ccc(N[C@H]3CC[C@H](Nc4nc5cccnc5s4)C3)nc2)c1=O [Example 82, 1-Methyl-3-(6-(((1S,3S)-3-(thiazolo[5,4-b]pyridin-2-ylamino)cyclopentyl)amino)pyridin-3-yl)pyrimidine-2,4(1H,3H)-dione]",,124,> 10,1,> 40100,2.3
"O=c1ccccn1-c1ccc(N[C@H]2CC[C@H](Nc3nc4cccnc4[nH]3)C2)nc1 [Example 46, 6′-(((1S,3S)-3-((3H-Imidazo[4,5-b]pyridin-2-yl)amino)cyclopentyl)amino)-2H-[1,3′-bipyridin]-2-one]",,102,0.425,6,> 40000,4.4
"O=c1ccccn1-c1ccc(N[C@H]2CC[C@H](Nc3nc4cc(CO)cnc4[nH]3)C2)nc1 [Example 61, 6′-(((1S,3S)-3-((6-(Hydroxymethyl)-3H-imidazo[4,5-b]pyridin-2-yl)amino)cyclopentyl)amino)-2H-[1,3′-bipyridin]-2-one]",,100,> 10,11,> 40000,8.9
"O=c1c2sccc2ccn1-c1ccc(N[C@H]2CC[C@H](Nc3nc4cccnc4s3)C2)nc1 [Example 76, 6-(6-(((1S,3S)-3-(Thiazolo[5,4-b]pyridin-2-ylamino)cyclopentyl)amino)pyridin-3-yl)thieno[2,3-c]pyridin-7(6H)-one]",,55,> 10,0.1,2570,0.4
"Cc1cccn(-c2ccc(N[C@H]3CC[C@H](Nc4nc5cccnc5[nH]4)C3)nc2)c1=O [Example 40, 6′-(((1S,3S)-3-((3H-Imidazo[4,5-b]pyridin-2-yl)amino)cyclopentyl)amino)-3-methyl-2H-[1,3′-bipyridin]-2-one]",,90,8.15,1,> 40000,1.6
"COc1cccn(-c2ccc(N[C@H]3CC[C@H](Nc4nc5cccnc5s4)C3)nc2)c1=O [Example 21, 3-Methoxy-6′-(((1S,3S)-3-(thiazolo[5,4-b]pyridin-2-ylamino)cyclopentyl)amino)-2H-[1,3′-bipyridin]-2-one]",,100,> 10,0.5,> 40000,1.5
"O=C(O)c1ccc(=O)n(-c2ccc(N[C@H]3CC[C@H](Nc4nc5cccnc5[nH]4)C3)nc2)c1 [Example 44, 6′-(((1S,3S)-3-((3H-Imidazo[4,5-b]pyridin-2-yl)amino)cyclopentyl)amino)-2-oxo-2H-[1,3′-bipyridine]-5-carboxylic acid]",,82,7.91,4,> 40000,4.1
